From ChEMBL document CHEMBL1201862, “PubChem BioAssay data set” (2004)
Calls of active or inactive are those of the source.

How the values were obtained:
[1] = target: Paired box protein Pax-8 (Homo sapiens, UniProt Q06710); assay: PAX8 transcriptional activity inhibition in RMG-I – RMG-I cells, luciferase, cherry-pick, dose response (AID 687027); format: functional, cell-based;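 also: luciferase reporter driven by Pax8 target thyroperoxidase promoter measured by SteadyGlo luminescence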
[2] = OVCAR8 cell viability loss – plate reader, dry powder samples, PAX8 project, dose response (AID 743197); format: functional, cell-based; details: OVCAR-8
[3] = target: T1, Short transient receptor potential channel 4 (Mus musculus, UniProt Q9QUQ5); assay: calcium entry via TRPC4 opening agents – cell-based, HEK293 TRPC4/mu-opioid, Fluo-4 calcium, dose response (AID 434937); format: functional
T1 sequence (Q9QUQ5 whole entry): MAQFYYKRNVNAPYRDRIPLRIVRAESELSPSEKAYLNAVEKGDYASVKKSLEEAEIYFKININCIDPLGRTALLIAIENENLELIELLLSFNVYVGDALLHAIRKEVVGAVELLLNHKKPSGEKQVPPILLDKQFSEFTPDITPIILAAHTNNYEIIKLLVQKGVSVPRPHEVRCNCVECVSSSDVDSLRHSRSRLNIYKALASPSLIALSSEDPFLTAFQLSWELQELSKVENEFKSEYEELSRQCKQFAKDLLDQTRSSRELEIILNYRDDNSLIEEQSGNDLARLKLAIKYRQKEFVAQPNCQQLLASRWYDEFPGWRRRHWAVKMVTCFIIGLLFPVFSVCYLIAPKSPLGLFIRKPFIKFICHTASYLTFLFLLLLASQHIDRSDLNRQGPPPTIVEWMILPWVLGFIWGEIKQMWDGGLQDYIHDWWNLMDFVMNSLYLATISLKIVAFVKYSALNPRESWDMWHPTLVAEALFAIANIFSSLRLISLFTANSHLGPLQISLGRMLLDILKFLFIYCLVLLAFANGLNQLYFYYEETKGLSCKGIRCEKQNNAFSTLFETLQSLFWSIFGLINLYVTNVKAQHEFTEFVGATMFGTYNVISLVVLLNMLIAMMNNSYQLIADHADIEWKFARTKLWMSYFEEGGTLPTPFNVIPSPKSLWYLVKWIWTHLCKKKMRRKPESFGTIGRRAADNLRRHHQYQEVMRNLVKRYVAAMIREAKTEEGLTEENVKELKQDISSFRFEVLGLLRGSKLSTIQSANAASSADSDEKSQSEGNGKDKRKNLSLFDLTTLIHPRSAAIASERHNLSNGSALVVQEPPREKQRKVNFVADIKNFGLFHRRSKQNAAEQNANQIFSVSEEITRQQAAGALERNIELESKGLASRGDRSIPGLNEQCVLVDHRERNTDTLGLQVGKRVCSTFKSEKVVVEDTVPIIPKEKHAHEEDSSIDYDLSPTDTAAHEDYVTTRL

[4] = target: T1, Short transient receptor potential channel 4; assay: block of DAMGO-driven TRPC4 calcium entry – cell-based, HEK293 TRPC4/mu-opioid, Fluo-4 calcium, dose response (AID 434942); format: functional;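 also: potency of inhibitors blocking the TRPC4 calcium response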
[5] = target: Nonstructural protein 1 (Influenza A virus, UniProt Q194T2); format: functional, Influenza A virus (A/California/07/2009(H1N1))
[6] = system: INS1; assay: INS-1E survival protection against cytokine death – cell-based, luminescence, retest, dose response (AID 449756); format: functional; details: Rattus norvegicus;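 also: cell death triggered by IL-1 beta plus TNF-alpha plus IFN-gamma mixture; protective hits raise ATP signal compared with cytokine alone wells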
[7] = luciferase reporter signal suppression in cells – H4 neuroglioma cells, luminescence, dose response (AID 1990); format: functional, cell-based
[8] = system: Streptococcus; assay: GAS UMAA2166 growth inhibition – luminescence, BacTiterGlo, counter-screen for streptokinase expression inhibitor project, dose response (AID 1915); format: functional, organism-based;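 also: potency for reduction of bacterial viability or growth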
[9] = system: BJ; assay: cells; format: functional, cell-based; details: Homo sapiens
[10] = DRD fibroblast viability loss – cell-based, non-viral oncogenic, luminescence, dose response (AID 1934); format: functional; details: Homo sapiens
[11] = system: BJ; assay: BJ-TERT-LT-ST fibroblast viability loss – cell-based, RAS-independent, luminescence, dose response (AID 1935); format: functional; details: Homo sapiens;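 also: BJ fibroblasts immortalized with TERT plus LT and ST oncogenes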
[12] = system: Streptococcus sp. 'group A'; assay: Streptococcus pyogenes SK(-)GAS viability under kanamycin – luminescence, BacTiterGlo, confirmation, counter-screen for streptokinase expression inhibitor project, dose response (AID 1900); format: functional, organism-based
[13] = system: BJ; assay: BJ-TERT fibroblast viability loss – cell-based, RAS-independent, luminescence, dose response (AID 1933); format: functional; details: Homo sapiens
[14] = alpha-synuclein stem-loop luciferase translation blockers – H4 neuroglioma cells, luminescence, confirmation (AID 1988); format: functional, cell-based
[15] = Luminescence Cell-Based Dose Response HTS to Identify Inhibitors of 5'UTR Stem-Loop Driven Prion Protein mRNA Translation in H4 Neuroglioblastoma Cells. [Related pubchem assays: 1827 (Project Summary), 1813 (Primary HTS)]; format: functional
[16] = microbe, parasite or virus in culture; format: functional; details: Mycobacterium tuberculosis
[17] = target: T2, Streptokinase A (Streptococcus pyogenes serotype M1, UniProt P10520); assay: viability-normalized secreted streptokinase activity reduction – plasminogen activation absorbance, OD405, dose response (AID 1914); format: functional, Streptococcus pyogenes M1 GAS;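 also: secreted streptokinase activity via plasminogen activation per viability signal from cell pellet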
T2 sequence (P10520 whole entry): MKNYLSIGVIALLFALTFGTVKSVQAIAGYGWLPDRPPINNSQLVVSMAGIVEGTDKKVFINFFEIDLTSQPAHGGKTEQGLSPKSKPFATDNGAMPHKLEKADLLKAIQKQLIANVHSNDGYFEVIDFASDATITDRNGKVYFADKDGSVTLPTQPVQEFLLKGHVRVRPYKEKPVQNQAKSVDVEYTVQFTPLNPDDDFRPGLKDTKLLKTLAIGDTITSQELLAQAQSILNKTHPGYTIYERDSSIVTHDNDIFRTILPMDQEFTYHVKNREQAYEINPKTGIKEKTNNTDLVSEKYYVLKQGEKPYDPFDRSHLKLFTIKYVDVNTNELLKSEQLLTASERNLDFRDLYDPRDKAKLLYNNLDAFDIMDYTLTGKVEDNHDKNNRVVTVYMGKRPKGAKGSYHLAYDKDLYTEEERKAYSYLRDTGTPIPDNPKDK

Nonstructural protein 1, sequence (Q194T2 whole entry): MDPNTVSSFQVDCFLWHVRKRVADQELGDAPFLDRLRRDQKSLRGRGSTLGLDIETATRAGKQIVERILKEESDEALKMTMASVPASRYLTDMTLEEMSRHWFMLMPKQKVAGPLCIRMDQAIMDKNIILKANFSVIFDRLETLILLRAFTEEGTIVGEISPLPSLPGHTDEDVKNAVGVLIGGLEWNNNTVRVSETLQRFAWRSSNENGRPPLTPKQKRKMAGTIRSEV
Paired box protein Pax-8, sequence (Q06710 whole entry): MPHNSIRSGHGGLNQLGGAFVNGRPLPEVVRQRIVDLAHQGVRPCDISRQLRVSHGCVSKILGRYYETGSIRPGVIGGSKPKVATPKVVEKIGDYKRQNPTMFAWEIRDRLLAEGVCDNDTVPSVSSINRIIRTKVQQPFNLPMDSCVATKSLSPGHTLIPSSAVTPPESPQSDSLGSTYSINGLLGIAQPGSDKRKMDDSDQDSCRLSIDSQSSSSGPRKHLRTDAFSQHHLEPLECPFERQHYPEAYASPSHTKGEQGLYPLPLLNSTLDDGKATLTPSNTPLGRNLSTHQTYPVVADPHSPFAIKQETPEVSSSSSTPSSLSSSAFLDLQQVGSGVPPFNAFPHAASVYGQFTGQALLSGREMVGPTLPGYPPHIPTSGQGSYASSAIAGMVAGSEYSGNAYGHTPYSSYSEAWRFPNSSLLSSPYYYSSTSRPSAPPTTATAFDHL

COc1cccc(S(=O)(=O)Nc2ccc3c(c2)[C@H]2C[C@H](CC(=O)NCc4ccccc4F)O[C@H](CO)[C@H]2O3)c1
AC50 [1]: 16.1 µM (active) | AC50 [2]: > 70 µM (inactive)

O=C(NCC(c1cccs1)N1CCOCC1)c1ccc(Cl)c([N+](=O)[O-])c1 (stereo not given)
EC50 [3]: 5.31 µM (active)

Cn1c(-c2ccccc2)cnc1NCc1ccc(F)cc1
EC50 [4]: 1.88 µM (active)

COc1cc(C(=O)N/N=C(\C)c2ccccn2)cc(OC)c1OC
IC50 [5]: 16.9 µM (active) | AC50 [6]: 1.94 µM (active)

Cc1nnc2sc(SCC(=O)Nc3cccc(Cl)c3)nn2c1=O
IC50 [5]: 10.4 µM (active)

Cc1[nH]n(-c2ccccc2)c(=O)c1N=Nc1c(O)cc(S(=O)(=O)N(C)C)c2ccccc12
EC50 [7]: 3.37 µM (active) | EC50 [8]: 6.64 µM (active) | EC50 [9]: 10.3 µM (active) | EC50 [10]: 7.77 µM (active) | IC50 [5]: 19.8 µM (active) | EC50 [11]: 10.1 µM (active) | EC50 [12]: 2.21 µM (active) | EC50 [13]: 7.94 µM (active) | EC50 [14]: 2.12 µM (active) | AC50 [6]: 0.949 µM (active) | EC50 [15]: 6.77 µM (active)

Cc1cc(=O)oc2c(C)c(OCC(=O)N3CCN(C(=O)C4COc5ccccc5O4)CC3)ccc12 (stereo not given)
CC50 [16]: > 40 µM (active)

Cc1cccc(/C=c2\s/c(=C\C(=O)C(C)(C)C)[nH]c2=O)c1
EC50 [8]: 17.2 µM (active) | CC50 [16]: 24.7 µM (active) | EC50 [12]: 10 µM (active) | EC50 [17]: > 150 µM (not active)

ClCc1nc2ccccc2c2ccccc12
CC50 [16]: 18.6 µM (active)

C=C(C)Cn1c(SCC)nc2ccccc2c1=O
EC50 [4]: 4.73 µM (active)
